# Measured values published in patent US10660877B2 (BRISTOL-MYERS SQUIBB COMPANY, priority 2016, dated 2020).
# pIC50: −log10 of the molar value. Like-named read-outs stand apart in the source and are kept apart here.
# Experiments:
# [1] = molecular target: human TLR7 (Homo sapiens (Human), UniProt Q9NYK1); assay: TLR7 inhibition reporter assay (HEK-Blue cells, SEAP reporter, gardiquimod stimulation); format: cell-based; conditions: HEK-Blue cells overexpressing human TLR7, gardiquimod 7.5 μM
# [2] = molecular target: human TLR8 (Homo sapiens (Human), UniProt Q9NR97); assay: TLR8 inhibition reporter assay (HEK-Blue cells, SEAP reporter, R848 stimulation);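 further: compounds tested from 0.05 nM to 50 µM, 22 h at 37 °C, SEAP measured with HEK-Blue Detection, inhibition relative to agonist plus DMSO versus a known inhibitor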
# human TLR8, sequence (Q9NR97 27-1041): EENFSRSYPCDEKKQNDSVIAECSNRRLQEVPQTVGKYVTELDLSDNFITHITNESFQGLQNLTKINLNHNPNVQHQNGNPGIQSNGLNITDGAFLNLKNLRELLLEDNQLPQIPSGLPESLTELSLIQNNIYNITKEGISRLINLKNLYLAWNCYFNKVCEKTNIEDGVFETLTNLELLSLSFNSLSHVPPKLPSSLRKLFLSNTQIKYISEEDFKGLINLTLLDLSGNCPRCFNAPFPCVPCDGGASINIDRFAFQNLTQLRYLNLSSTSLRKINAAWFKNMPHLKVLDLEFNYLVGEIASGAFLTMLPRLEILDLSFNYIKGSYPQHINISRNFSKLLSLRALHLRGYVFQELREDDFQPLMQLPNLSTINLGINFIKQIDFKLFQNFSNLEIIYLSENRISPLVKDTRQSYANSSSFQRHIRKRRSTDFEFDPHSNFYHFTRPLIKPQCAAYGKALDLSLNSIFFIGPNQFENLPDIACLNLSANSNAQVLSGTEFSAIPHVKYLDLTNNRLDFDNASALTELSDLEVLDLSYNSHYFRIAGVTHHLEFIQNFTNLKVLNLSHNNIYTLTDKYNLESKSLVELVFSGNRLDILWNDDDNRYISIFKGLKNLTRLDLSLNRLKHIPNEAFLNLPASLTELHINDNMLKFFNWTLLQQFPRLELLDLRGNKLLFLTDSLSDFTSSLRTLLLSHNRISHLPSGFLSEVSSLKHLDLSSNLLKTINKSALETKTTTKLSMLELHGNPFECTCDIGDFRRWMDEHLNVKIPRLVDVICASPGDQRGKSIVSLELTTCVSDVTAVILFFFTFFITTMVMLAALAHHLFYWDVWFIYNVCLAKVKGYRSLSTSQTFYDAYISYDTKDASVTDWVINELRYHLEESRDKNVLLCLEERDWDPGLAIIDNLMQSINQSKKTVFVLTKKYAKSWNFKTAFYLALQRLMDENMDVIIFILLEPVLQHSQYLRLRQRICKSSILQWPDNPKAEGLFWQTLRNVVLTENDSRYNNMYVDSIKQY
# [3] = molecular target: human TLR9 (Homo sapiens (Human), UniProt Q9NR96); assay: TLR9 inhibition reporter assay (HEK-Blue cells, SEAP reporter, ODN2006 stimulation);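 further: compounds tested over 0.05 nM to 50 µM, 22 h incubation, inhibition taken as SEAP signal drop from agonist plus DMSO wells toward a known inhibitor control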
# human TLR9, sequence (Q9NR96 26-1032): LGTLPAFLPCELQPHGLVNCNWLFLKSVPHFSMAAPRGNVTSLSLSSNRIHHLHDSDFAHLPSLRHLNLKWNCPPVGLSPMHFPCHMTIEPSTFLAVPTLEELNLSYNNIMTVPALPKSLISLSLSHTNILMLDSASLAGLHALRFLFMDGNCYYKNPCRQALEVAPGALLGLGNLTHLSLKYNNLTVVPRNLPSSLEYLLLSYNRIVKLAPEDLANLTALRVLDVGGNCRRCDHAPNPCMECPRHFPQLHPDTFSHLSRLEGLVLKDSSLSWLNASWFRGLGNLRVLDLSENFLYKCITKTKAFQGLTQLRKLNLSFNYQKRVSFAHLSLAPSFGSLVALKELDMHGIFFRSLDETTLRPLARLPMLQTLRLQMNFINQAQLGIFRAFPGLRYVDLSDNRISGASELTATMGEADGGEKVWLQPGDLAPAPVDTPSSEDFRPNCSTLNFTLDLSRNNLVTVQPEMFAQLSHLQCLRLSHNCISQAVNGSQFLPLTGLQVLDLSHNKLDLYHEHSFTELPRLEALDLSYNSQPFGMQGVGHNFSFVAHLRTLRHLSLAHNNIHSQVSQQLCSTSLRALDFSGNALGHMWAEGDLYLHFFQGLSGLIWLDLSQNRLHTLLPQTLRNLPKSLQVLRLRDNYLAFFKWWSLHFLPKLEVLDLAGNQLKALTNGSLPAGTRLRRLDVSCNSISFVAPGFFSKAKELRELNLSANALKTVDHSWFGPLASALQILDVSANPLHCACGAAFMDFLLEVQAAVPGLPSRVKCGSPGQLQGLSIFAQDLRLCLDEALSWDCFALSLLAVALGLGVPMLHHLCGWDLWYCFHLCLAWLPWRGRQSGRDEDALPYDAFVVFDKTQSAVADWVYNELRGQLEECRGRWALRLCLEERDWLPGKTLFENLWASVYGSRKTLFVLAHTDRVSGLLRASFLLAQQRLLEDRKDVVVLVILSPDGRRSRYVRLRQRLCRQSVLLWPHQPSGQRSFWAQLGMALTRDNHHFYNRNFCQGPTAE
# [4] = read-out: TLR8 IC50, HEK-Blue cells overexpressing human TLR8, R848 15.9 μM
# [5] = read-out: TLR9 IC50, HEK-Blue cells overexpressing human TLR9, ODN2006 5 nM
# [6] = TLR8 IC50, HEK-Blue cells overexpressing human TLR8, R848 15.9 μM
# [7] = TLR9 IC50, HEK-Blue cells overexpressing human TLR9, ODN2006 5 nM
# human TLR7, sequence (Q9NYK1 27-1049): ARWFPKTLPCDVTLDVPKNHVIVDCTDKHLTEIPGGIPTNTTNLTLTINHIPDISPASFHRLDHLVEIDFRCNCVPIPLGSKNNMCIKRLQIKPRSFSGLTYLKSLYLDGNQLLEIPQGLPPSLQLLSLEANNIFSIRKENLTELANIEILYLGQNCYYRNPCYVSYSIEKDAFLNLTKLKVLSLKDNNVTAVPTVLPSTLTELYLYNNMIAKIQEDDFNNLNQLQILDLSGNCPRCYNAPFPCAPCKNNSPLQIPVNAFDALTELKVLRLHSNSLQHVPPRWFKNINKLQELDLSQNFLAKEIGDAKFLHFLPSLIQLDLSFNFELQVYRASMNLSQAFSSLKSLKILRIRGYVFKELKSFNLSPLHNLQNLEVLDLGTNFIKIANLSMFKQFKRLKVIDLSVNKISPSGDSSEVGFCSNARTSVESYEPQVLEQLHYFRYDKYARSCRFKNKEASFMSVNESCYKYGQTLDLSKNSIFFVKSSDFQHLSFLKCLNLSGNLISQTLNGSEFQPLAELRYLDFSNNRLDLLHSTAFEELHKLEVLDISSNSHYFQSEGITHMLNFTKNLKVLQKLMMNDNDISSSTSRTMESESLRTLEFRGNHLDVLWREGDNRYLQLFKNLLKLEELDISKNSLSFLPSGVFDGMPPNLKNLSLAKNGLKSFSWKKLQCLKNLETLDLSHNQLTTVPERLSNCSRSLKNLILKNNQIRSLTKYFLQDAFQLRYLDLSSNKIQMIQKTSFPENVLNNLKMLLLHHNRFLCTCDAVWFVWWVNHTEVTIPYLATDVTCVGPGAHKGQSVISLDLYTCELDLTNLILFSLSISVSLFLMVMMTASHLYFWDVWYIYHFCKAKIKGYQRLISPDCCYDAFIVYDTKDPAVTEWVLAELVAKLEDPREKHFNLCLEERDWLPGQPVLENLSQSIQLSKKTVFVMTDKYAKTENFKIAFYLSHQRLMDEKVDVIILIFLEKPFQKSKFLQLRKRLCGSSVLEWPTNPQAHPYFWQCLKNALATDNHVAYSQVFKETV
compound,measurement,setting,value
"Cc1cc(-c2[nH]c3ccc(C4CCN(C(=O)CN5CC[C@@H](O)C5)CC4)cc3c2C(C)C)cc(C)n1 [Example 391, (R)-1-(4-(2-(2,6-dimethylpyridin-4-yl)-3-isopropyl-1H-indol-5-yl)piperidin-1-yl)-2-(3-hydroxypyrrolidin-1-yl)ethan-1-one]",pIC50,[1],8.89
same,pIC50,[2]; [4],8.19
same,pIC50,[3]; [5],6.16
"CNC(=O)C(=O)N1CCC(c2ccc3[nH]c(-c4cc(C)nc(C)c4)c(C(C)C)c3c2)CC1 [Example 205, 2-(4-(2-(2,6-dimethylpyridin-4-yl)-3-isopropyl-1H-indol-5-yl)piperidin-1-yl)-N-methyl-2-oxoacetamide]",pIC50,[1],8.36
same,pIC50,[2]; [4],7.12
same,pIC50,[3]; [5],4.72
"Cc1cc(-c2[nH]c3ccc(C4CCN(CC(=O)N5CC[C@@H](O)C5)CC4)cc3c2C(C)C)cc(C)n1 [Example 275, (R)-2-(4-(2-(2,6-dimethylpyridin-4-yl)-3-isopropyl-1H-indol-5-yl)piperidin-1-yl)-1-(3-hydroxypyrrolidin-1-yl)ethan-1-one]",pIC50,[1],8.80
same,pIC50,[2]; [6],8.17
same,pIC50,[3]; [7],7.17
"Cc1cc(-c2cc3cc(C4CCNCC4)ccc3[nH]2)cc(C)n1 [Example 94, 2-(2,6-dimethylpyridin-4-yl)-5-(piperidin-4-yl)-1H-indole]",pIC50,[1],6.27
same,pIC50,[2]; [4],5.50
same,pIC50,[3]; [5],6.91
"Cc1cc(-c2[nH]c3ccc(C4CCN(CC(=O)NC5CCC5)CC4)cc3c2C(C)C)cc(C)n1 [Example 213, N-cyclobutyl-2-(4-(2-(2,6-dimethylpyridin-4-yl)-3-isopropyl-1H-indol-5-yl)piperidin-1-yl) acetamide]",pIC50,[1],8.15
same,pIC50,[2]; [4],7.86
same,pIC50,[3]; [5],6.48
"CC(C)c1c(-c2ccnc(C#N)c2C(F)(F)F)[nH]c2ccc(C3CCNCC3)cc12 [Example 33, 4-(3-isopropyl-5-(piperidin-4-yl)-1H-indol-2-yl)-3-(trifluoromethyl)picolinonitrile]",pIC50,[1],5.68
same,pIC50,[2]; [4],6.64
same,pIC50,[3]; [5],5.25
"CCc1c(-c2cc(C)nc(C)c2)[nH]c2ccc(C3CCN(C(=O)CNC)CC3)cc12 [Example 529, 1-(4-(2-(2,6-dimethylpyridin-4-yl)-3-ethyl-1H-indol-5-yl)piperidin-1-yl)-2-(methylamino)ethan-1-one]",pIC50,[1],8.18
same,pIC50,[2]; [4],7.55
same,pIC50,[3]; [5],6.92
"Cc1cc(-c2[nH]c3ccc(C4CC(C)(C)N(C)C(C)(C)C4)cc3c2C(C)C)cc(C)n1 [Example 496, 2-(2,6-dimethylpyridin-4-yl)-3-isopropyl-5-(1,2,2,6,6-pentamethylpiperidin-4-yl)-1H-indole]",pIC50,[1],5.14
same,pIC50,[2]; [4],5.02
same,pIC50,[3]; [5],< 4.30
"Cc1cc(-c2[nH]c3ccc(C4CCN(C(=O)CNCCO)CC4)cc3c2C(C)C)cc(C)n1 [Example 336, 1-(4-(2-(2,6-dimethylpyridin-4-yl)-3-isopropyl-1H-indol-5-yl)piperidin-1-yl)-2-((2-hydroxyethyl)amino)ethan-1-one]",pIC50,[1],8.82
same,pIC50,[2]; [4],8.01
same,pIC50,[3]; [5],6.57
"Cc1cc(-c2[nH]c3ccc(C4CCN(C(=O)C5CC(=O)N(C)C5)CC4)cc3c2C(C)C)cc(C)n1 (stereo not drawn) [Example 100, 4-(4-(2-(2,6-dimethylpyridin-4-yl)-3-isopropyl-1H-indol-5-yl)piperidine-1-carbonyl)-1-methylpyrrolidin-2-one]",pIC50,[1],8.10
same,pIC50,[2]; [6],7.20
same,pIC50,[3]; [7],4.65
"Cc1cc(-c2[nH]c3ccc(C4CCN(CC5(CO)COC5)CC4)cc3c2C(C)C)cc(C)n1 [Example 319, (3-((4-(2-(2,6-dimethylpyridin-4-yl)-3-isopropyl-1H-indol-5-yl)piperidin-1-yl)methyl)oxetan-3-yl)methanol]",pIC50,[1],8.57
same,pIC50,[2]; [4],8.40
same,pIC50,[3]; [5],6.45
"Cc1cc(-c2[nH]c3ccc(C4CCN(C(=O)CN5CCCCS5(=O)=O)CC4)cc3c2C(C)C)cc(C)n1 [Example 167, 1-(4-(2-(2,6-dimethylpyridin-4-yl)-3-isopropyl-1H-indol-5-yl)piperidin-1-yl)-2-(1,1-dioxido-1,2-thiazinan-2-yl)ethan-1-one]",pIC50,[1],8.23
same,pIC50,[2]; [4],7.29
same,pIC50,[3]; [5],6.60
"COc1cc(-c2[nH]c3ccc(C4CCN(C5CCN(C)CC5)CC4)cc3c2C(C)C)ccn1 [Example 795, 3-isopropyl-2-(2-methoxypyridin-4-yl)-5-(1′-methyl-[1,4′-bipiperidin]-4-yl)-1H-indole]",pIC50,[1],6.89
same,pIC50,[2]; [4],7.90
same,pIC50,[3]; [5],6.07
"Cc1c(-c2[nH]c3ccc(C4CCNCC4)cc3c2C(C)C)ccnc1Cl [Example 35, 2-(2-chloro-3-methylpyridin-4-yl)-3-isopropyl-5-(piperidin-4-yl)-1H-indole]",pIC50,[1],7.57
same,pIC50,[2]; [4],7.54
same,pIC50,[3]; [5],5.39
"Cc1nccc(-c2[nH]c3ccc(C4CCN(C)CC4)cc3c2C(C)C)c1C [Example 637, 2-(2,3-dimethylpyridin-4-yl)-3-isopropyl-5-(1-methylpiperidin-4-yl)-1H-indole]",pIC50,[1],7.44
same,pIC50,[2]; [4],7.38
same,pIC50,[3]; [5],5.81
"Cc1cc(-c2[nH]c3ccc(C4CCN(C(=O)[C@@H]5C[C@H](F)CN5)CC4)cc3c2C(C)C)cc(C)n1 [Example 196, (4-(2-(2,6-dimethylpyridin-4-yl)-3-isopropyl-1H-indol-5-yl)piperidin-1-yl)((2S,4S)-4-fluoropyrrolidin-2-yl)methanone]",pIC50,[1],8.92
same,pIC50,[2]; [4],7.79
same,pIC50,[3]; [5],6.71
"Cc1cc(-c2[nH]c3ccc(C4CCN(C(=O)CN(C)CCC5(O)CCCC5)CC4)cc3c2C(C)C)cc(C)n1 [Example 408, 1-(4-(2-(2,6-dimethylpyridin-4-yl)-3-isopropyl-1H-indol-5-yl)piperidin-1-yl)-2-((2-(1-hydroxycyclopentyl)ethyl)(methyl)amino)ethan-1-one]",pIC50,[1],8.12
same,pIC50,[2]; [4],7.14
same,pIC50,[3]; [5],6.07
"Cc1cc(-c2[nH]c3ccc(C4CCN(C(=O)Cc5cc(C)nn5C)CC4)cc3c2C(C)C)cc(C)n1 [Example 136, 2-(1,3-dimethyl-1H-pyrazol-5-yl)-1-(4-(2-(2,6-dimethylpyridin-4-yl)-3-isopropyl-1H-indol-5-yl)piperidin-1-yl)ethan-1-one]",pIC50,[1],7.63
same,pIC50,[2]; [4],6.87
same,pIC50,[3]; [5],4.52
"Cc1cc(-c2[nH]c3ccc(C4CCN(Cc5ccncc5)CC4)cc3c2C(C)C)cc(C)n1 [Example 435, 2-(2,6-dimethylpyridin-4-yl)-3-isopropyl-5-(1-(pyridin-4-ylmethyl)piperidin-4-yl)-1H-indole]",pIC50,[1],8.04
same,pIC50,[2]; [4],8.38
same,pIC50,[3]; [5],6.22
"Cc1cc(-c2[nH]c3ccc(C4CCN(CC(=O)N5CC(F)(F)C5)CC4)cc3c2C(C)C)cc(C)n1 [Example 215, 1-(3,3-difluoroazetidin-1-yl)-2-(4-(2-(2,6-dimethylpyridin-4-yl)-3-isopropyl-1H-indol-5-yl)piperidin-1-yl)ethan-1-one]",pIC50,[1],8.31
same,pIC50,[2]; [4],8.22
same,pIC50,[3]; [5],6.17
"CCc1c(-c2ccnc(C)c2)[nH]c2ccc(C3CCN(C[C@@H]4CCCN4)CC3)cc12 [Example 740, (S)-3-ethyl-2-(2-methylpyridin-4-yl)-5-(1-(pyrrolidin-2-ylmethyl)piperidin-4-yl)-1H-indole]",pIC50,[1],7.17
same,pIC50,[2]; [6],8.22
same,pIC50,[3]; [7],6.95
